The values below come from patent US10626107B2, “Crystal form, salt type of substituted 2-hydro-pyrazole derivative and preparation method therefor” (CHIA TAI TIANQING PHARMACEUTICAL GROUP CO., LTD., priority 2016, dated 2020).

The test system of series [1] is MCF-7 breast cancer cells. Put plainly: Inhibition assay of the A crystal form of WX_1 on MCF-7 breast cancer cell proliferation (CellTiter-Glo). It counts as cell-based. The settings on record: Homo sapiens, MCF7, 144 h; MCF-7 cells, 6 days. The procedure: RPMI 1640 medium, fetal bovine serum and penicillin/streptomycin as antibiotics were purchased from Promega (Madison, Wis.). The MCF-7 cell line was purchased from the European Collection of Authenticated Cell Cultures (ECACC). Envision MultiLabel Plate Reader (PerkinElmer).
(§1) MCF-7 cells were seeded in a black 384-well plate with 45 μL of cell suspension (containing 200 MCF-7 cells) per well. The cell plate was placed in a carbon dioxide incubator for overnight culture.
(§2) The test compounds were diluted 3 times to the 10th concentration with Bravo, i.e., diluted from 10 μM to 0.508 nM, and a duplicate-well experiment was set. The medium was added to the middle plate in an amount of 49 μL per well. The gradient-diluted compounds were transferred in an amount of 1 μL per well to the middle plate according to the corresponding positions, and the mixture was mixed evenly and transferred to the cell plate in an amount of 5 μL per well. The cell plate was incubated in a carbon dioxide incubator for 6 days.
Promega CellTiter-Glo reagent was added to the cell plate in an amount of […] per well, and incubated for 10 minutes at room temperature to stabilize the luminescence signal. Reading was performed using a PerkinElmer Envision Multilabel Plate Reader.
For orientation: ATP-based viability assays read luminescence as a measure of living cells.

Series [2] has as its system human breast cancer MCF-7 subcutaneous xenograft tumor. It counts as in vivo. The source says: Cell line-derived xenograft (CDX) BALB/c nude mice that were female, 6- to 8-week old, weighed 20 g, and subcutaneously implanted with human tumor cell line derived from MCF-7 breast cancer patients were used. A total of 150 mice were needed, which were purchased from Beijing Vital River Laboratory Animal Technology Co., Ltd.
BALB/c nude mice that were female, 6- to 8-week old, and weighed approximately 20 g were used. The mice were maintained in separate ventilated cages (10 mice per cage) in a special pathogen-free environment. All the cages, bedding and water were disinfected prior to use. All the animals were free to access a standard certified commercial laboratory diet. A total of 150 mice were purchased from Beijing Vital River Laboratory Animal Technology Co., Ltd. for research. Each mouse was implanted subcutaneously with an estrogen tablets (0.18 mg/tablet, 60-day sustained release) in the left back. After 3 days, each mouse was implanted with tumor cells (10×10^6 in 0.2 mL of phosphate buffer) subcutaneously in the right back for tumor growth. Administration was started when the average tumor volume reached about 150 to 200 mm^3. The test compounds were orally administered daily, and the administration dosages were as shown in the above table. The tumor volumes were measured twice a week using a two-dimensional caliper. The volumes were expressed in cubic millimeters and calculated by the following formula: V=0.5 a×b^2, wherein a and b were the long diameter and short diameter of a tumor, respectively. The anti-tumor efficacy was determined by dividing the average increase of the tumor volumes of the animals treated with a compound by the average increase of the tumor volumes of the animals without being treated with the compound.

In series [3] the test system is human lung cancer LU-01-0393 subcutaneous xenograft tumor. Put plainly: In vivo drug efficacy study (II): human lung cancer LU-01-0393 subcutaneous xenograft tumor model. Further details: species or system BALB/c nude mice. As to conditions: 120.0 mg/kg PO QD × 3W. An excerpt: Cell line-derived xenograft (CDX) BALB/c nude mice that were female, 6- to 8-week old, weighed 17 to 20 g, and subcutaneously implanted with human tumor cell line derived from LU-01-0393 lung cancer patient were used. A total of 72 mice were needed and were purchased from Shanghai Xipuer-Bikai Experimental Animal Co., Ltd. Human lung cancer LU-01-0393 tumor (i.e., non-small cell lung cancer) was originally derived from a clinical sample of a surgical resection. It was defined as passage PO after being inoculated to nude mice, and the tumor of passage PO was re-inoculated to nude mice and was then defined as passage P1, and so forth. Passage was performed in nude mice. LU-01-0393-FP5 was obtained from the transplantation after the recovery of P4. This study would use the tumor tissue of passage FP6.
BALB/c nude mice that were female, 6- to 8-week old, and weighed approximately 17 to 20 g were used. The mice were maintained in separate ventilated cages in a special pathogen-free environment. All the cages, bedding and water were disinfected prior to use. All the animals were free to access a standard certified commercial laboratory diet. A total of 72 mice purchased from Shanghai Xipuer-Bikai Experimental Animal Co., Ltd. were used for the study. The LU-01-0393 FP6 tumor tissue was cut to 20 to 30 mm^3 and inoculated to the right back of each mouse to wait for the tumor growth. When the average tumor volume reached about 171 mm^3, the mice were randomized into groups and administered. The test compounds were orally administered daily, and the administration dosages were as shown in the above table. The tumor diameters were measured twice a week using a two-dimensional caliper. The tumor volumes were calculated by the following formula: V=0.5 a×b^2, wherein a and b were the long diameter and the short diameter of a tumor, respectively. The anti-tumor efficacy was determined by dividing the average increase of the tumor volumes of the animals treated with a compound by the average increase of the tumor volumes of the animals without being treated with the compound.

Series [4] can be described thus: Solubility tests in different vehicles (HPLC). Format: physicochemical. The settings on record: 26 °C, thermodynamic from solid, room temperature 25 to 27° C. The procedure:
Samples (about 2 mg) (if the sample was a salt, the required amount of the salt was calculated according to the salt factor in accordance with the criterion that the compound of formula (I) was 2 mg) were weighed respectively and added to a 1.5 mL glass vial. Different vehicles (1 mL) were then added respectively. The above-mentioned suspension was placed on a magnetic stirrer for stirring (room temperature 25 to 27° C.). After stirring for 24 hours, samples were taken. The samples were first centrifuged, and the supernatants were taken. After appropriate dilution according to the situation of the dissolution, the concentrations were determined by HPLC. The results were as follows:
Notes: • FaSSIF: to simulate the intestinal fluid in the small intestine of human in a hunger state before meal; • FeSSIF: to simulate the intestinal fluid in the small intestine of human in a full state after meal; • SGF: to simulate the gastric juice in the empty stomach of human in a hunger state

The subject of the next series is MCF-7 cells. Put plainly: Inhibition assay of the compound of formula (I) on the proliferation of MCF-7 cells (CellTiter-Glo). It counts as cell-based. The settings on record: Homo sapiens, MCF7, 144 h, 6 days. How it is done: (§3) RPMI 1640 medium, fetal bovine serum and penicillin/streptomycin as antibiotics were purchased from Promega (Madison, Wis.). The MCF-7 cell line and the MDA-MB-436 cell line were purchased from the European Collection of Authenticated Cell Cultures (ECACC). Envision Multilabel Plate Reader (PerkinElmer).
as §1, §2
(§4) Promega CellTiter-Glo reagent was added to the cell plate in an amount of 25 μL per well, and incubated for 10 minutes at room temperature to stabilize the luminescence signal. Reading was performed using a PerkinElmer Envision Multilabel Plate Reader.

A further series deals with MDA-MB-436 cells. Put plainly: Inhibition assay of the compound of formula (I) on the proliferation of MDA-MB-436 cells (CellTiter-Glo). The settings on record: Homo sapiens, 144 h, 6 days. Format: cell-based. How it is done:
as §3
MDA-MB-436 cells were seeded in a black 384-well plate with 45 μL of cell suspension (containing 585 MDA-MB-436 cells) per well. The cell plate was placed in a carbon dioxide incubator for overnight culture.
as §2, §4

The structures appear in SMILES notation. Read-outs that look alike come from different tables or passages of the source.

In series [1], `CCN1CCN(Cc2ccc(Nc3ncc(F)c(-c4cc(F)c5nc(C)n(C(C)C)c5c4)n3)nc2)CC1` [LY2835219, Abemaciclib] registered a half-inhibitory concentration (IC50) of 185 nM. Moreover, in series [2] (25.0 mg/kg PO QD × 3W), the “Tumor volume Day 0” value amounted to 153 mm^3 and the “Tumor volume Day 7” value was 155 mm^3. For the same compound, in series [3], the “Tumor volume Day 0” value worked out at 172 ± 23 mm^3, the “Tumor volume Day 7” value amounted to 228 ± 26 mm^3, the “Tumor volume Day 14” value amounted to 255 ± 30 mm^3 and the “Tumor volume Day 21” value was 272 ± 36 mm^3.
As to `CC(=O)c1c(C)c2cnc(Nc3ccc(N4CCNCC4)cn3)nc2n(C2CCCC2)c1=O` [Palbociclib], in series [1], the 50% inhibitory concentration (IC50) stood at 88.2 nM. Also, in series [2] (25.0 mg/kg PO QD × 3W), the “Tumor volume Day 0” value is listed as 153 mm^3, the “Tumor volume Day 7” value turned out to be 203 mm^3, the “Tumor volume Day 14” value is on record as 252 mm^3 and the “Tumor volume Day 20” value came out at 222 mm^3. In series [2] (50.0 mg/kg PO QD × 3W), the “Tumor volume Day 0” value was determined as 153 mm^3, the “Tumor volume Day 7” value was 180 mm^3, the “Tumor volume Day 14” value was found to be 197 mm^3 and the “Tumor volume Day 20” value came out at 137 mm^3. Besides, in series [2] (mouse, in vivo), the tolerability result is recorded as “intolerable”. For the same compound, in series [3], the “Tumor volume Day 0” value was 170 ± 24 mm^3, the “Tumor volume Day 7” value is 261 ± 38 mm^3, the “Tumor volume Day 14” value is reported as 266 ± 41 mm^3 and the “Tumor volume Day 21” value is reported as 251 ± 34 mm^3.
With `CC(C)c1c2cc(-c3nc(Nc4ccc(N5CCNCC5)cn4)ncc3F)ccc2nn1C` [compound of formula (I)], the solubility at 24 h in series [4] (simulated gastric fluid, SGF, read-out: Solubility SGF) was greater than 2000 µg/mL; in series [4] (FaSSIF, read-out: Solubility FaSSIF), 13 µg/mL; in series [4] (FeSSIF, read-out: Solubility FeSSIF), 1600 µg/mL; in series [4] (water, water, H2O, read-out: Solubility H2O) it was 10 µg/mL. The values for the IC50 in the series on MCF-7 cells and in the series on MDA-MB-436 cells were 32.1 nM and 328 nM, respectively.
On to `CCN1CCN(Cc2ccc(Nc3ncc(F)c(-c4ccc5nn(C)c(C(C)C)c5c4)n3)nc2)CC1` [compound of formula (a), reference compound], for which the IC50 in the series with MCF-7 cells worked out at 240 nM; in the series with MDA-MB-436 cells, 2100 nM.

The term IC50 denotes the concentration that inhibits the measured activity by half. Low values mean greater potency, high ones weaker potency. As usually defined, the solubility is the dissolved amount per volume that the medium holds.
